From patent publication US20110071108A1, “Beta-Cyclodextrin Derivatives as Antibacterial Agents” (Pinnacle Pharmaceuticals, Inc., priority 2005, published 2011)

Tests used:
Experiment in all cases: Bacterial panel testing, MIC by broth microdilution
Format in all cases: cell-based
Conditions in all cases: 20-24 hours growth
Enterococcus faecium = tested on: Enterococcus faecium
Protocol: (§1) One to three colonies of bacteria were picked from an Mueller-Hinton or Brain Heart infusion agar plate (depending on the bacterial strain) and transferred to 3 ml Mueller-Hinton broth or Brain Heart infusion media (depending on the bacterial strain). Bacteria were allowed to grow for 2-4 hours in an incubator at 37° C. Bacteria-inoculated media were dispersed in 0.9% saline to match McFarland standard density. 100 μl standardized inoculation was added to 20 ml media (dilution 1). 10 μl of the new dilution was added to 990 μl media and mixed (dilution 2). 10 μl of dilution 2 was spread on an agar plate and allowed to grow overnight. Colonies were then […].
(§2) Test compound was diluted to 10 μg/ml in dimethylsulfoxide. Four μl of Rifampicin antibiotic was loaded into row H, column 2.
(§3) All wells were then filled with 100 μl of inoculated media (dilution 1 from Example 1). A further 100 μl of the inoculated media was then added to column 2 and the contents are pipetted to thoroughly mix the contents. A full 100 μl was then transferred from column 2 and mixed into column 3. This process was continued from left to right until columns 2-12 were serially diluted, and the final draw from column 12 was discarded. The plates were covered with 3M sealing tape (plates containing Enterococcus faecium were sealed with Air Pore sealing tape) and allowed to grow for 20-24 hours. Cytotoxic wells (clear wells) are then scored and the potency of the compound was determined.

Staphylococcus aureus = tested on: Staphylococcus aureus
Protocol: as §1, §2, §3

Eschericia coli = tested on: Eschericia coli
Protocol: as §1, §2, §3

Salmonella choleraesuis = tested on: Salmonella choleraesuis
Protocol: as §1, §2, §3

Pseudomonas aeruginosa = tested on: Pseudomonas aeruginosa
Protocol: as §1, §2, §3

SMILES: C[C@H](N)C(=O)NC[C@H]1O[C@@H]2O[C@H]3[C@H](O)[C@@H](O)[C@@H](O[C@H]4[C@H](O)[C@@H](O)[C@@H](O[C@H]5[C@H](O)[C@@H](O)[C@@H](O[C@H]6[C@H](O)[C@@H](O)[C@@H](O[C@H]7[C@H](O)[C@@H](O)[C@@H](O[C@H]8[C@H](O)[C@@H](O)[C@@H](O[C@H]1[C@H](O)[C@H]2O)O[C@@H]8CNC(=O)[C@H](C)N)O[C@@H]7CNC(=O)[C@H](C)N)O[C@@H]6CNC(=O)[C@H](C)N)O[C@@H]5CNC(=O)[C@H](C)N)O[C@@H]4CNC(=O)[C@H](C)N)O[C@@H]3CNC(=O)[C@H](C)N.Cl.Cl.Cl.Cl.Cl.Cl.Cl
- MIC EF (Enterococcus faecium): >200 µg/mL
- MIC SA (Staphylococcus aureus): >200 µg/mL
- MIC EC (Eschericia coli): >200 µg/mL
- MIC SC (Salmonella choleraesuis): >200 µg/mL
- MIC PA (Pseudomonas aeruginosa): >200 µg/mL

SMILES: Cl.Cl.Cl.Cl.Cl.Cl.Cl.N=C(N)NCCCSC[C@H]1O[C@@H]2O[C@H]3[C@H](O)[C@@H](O)[C@@H](O[C@H]4[C@H](O)[C@@H](O)[C@@H](O[C@H]5[C@H](O)[C@@H](O)[C@@H](O[C@H]6[C@H](O)[C@@H](O)[C@@H](O[C@H]7[C@H](O)[C@@H](O)[C@@H](O[C@H]8[C@H](O)[C@@H](O)[C@@H](O[C@H]1[C@H](O)[C@H]2O)O[C@@H]8CSCCCNC(=N)N)O[C@@H]7CSCCCNC(=N)N)O[C@@H]6CSCCCNC(=N)N)O[C@@H]5CSCCCNC(=N)N)O[C@@H]4CSCCCNC(=N)N)O[C@@H]3CSCCCNC(=N)N
- MIC EF (Enterococcus faecium): >200 µg/mL
- MIC SA (Staphylococcus aureus): >200 µg/mL
- MIC EC (Eschericia coli): >200 µg/mL
- MIC SC (Salmonella choleraesuis): >200 µg/mL
- MIC PA (Pseudomonas aeruginosa): >200 µg/mL

SMILES: Cl.Cl.Cl.Cl.Cl.Cl.Cl.N[C@@H](CC(=O)OCc1ccccc1)C(=O)NC[C@H]1O[C@@H]2O[C@H]3[C@H](O)[C@@H](O)[C@@H](O[C@H]4[C@H](O)[C@@H](O)[C@@H](O[C@H]5[C@H](O)[C@@H](O)[C@@H](O[C@H]6[C@H](O)[C@@H](O)[C@@H](O[C@H]7[C@H](O)[C@@H](O)[C@@H](O[C@H]8[C@H](O)[C@@H](O)[C@@H](O[C@H]1[C@H](O)[C@H]2O)O[C@@H]8CNC(=O)[C@@H](N)CC(=O)OCc1ccccc1)O[C@@H]7CNC(=O)[C@@H](N)CC(=O)OCc1ccccc1)O[C@@H]6CNC(=O)[C@@H](N)CC(=O)OCc1ccccc1)O[C@@H]5CNC(=O)[C@@H](N)CC(=O)OCc1ccccc1)O[C@@H]4CNC(=O)[C@@H](N)CC(=O)OCc1ccccc1)O[C@@H]3CNC(=O)[C@@H](N)CC(=O)OCc1ccccc1
- MIC EF (Enterococcus faecium): >200 µg/mL
- MIC SA (Staphylococcus aureus): >200 µg/mL
- MIC EC (Eschericia coli): >200 µg/mL
- MIC SC (Salmonella choleraesuis): >200 µg/mL
- MIC PA (Pseudomonas aeruginosa): >200 µg/mL

SMILES: Cl.Cl.Cl.Cl.Cl.Cl.Cl.NCCCCCSC[C@H]1O[C@@H]2O[C@H]3[C@H](O)[C@@H](O)[C@@H](O[C@H]4[C@H](O)[C@@H](O)[C@@H](O[C@H]5[C@H](O)[C@@H](O)[C@@H](O[C@H]6[C@H](O)[C@@H](O)[C@@H](O[C@H]7[C@H](O)[C@@H](O)[C@@H](O[C@H]8[C@H](O)[C@@H](O)[C@@H](O[C@H]1[C@H](O)[C@H]2O)O[C@@H]8CSCCCCCN)O[C@@H]7CSCCCCCN)O[C@@H]6CSCCCCCN)O[C@@H]5CSCCCCCN)O[C@@H]4CSCCCCCN)O[C@@H]3CSCCCCCN
- MIC EF (Enterococcus faecium): >200 µg/mL
- MIC SA (Staphylococcus aureus): >200 µg/mL
- MIC EC (Eschericia coli): >200 µg/mL
- MIC SC (Salmonella choleraesuis): >200 µg/mL
- MIC PA (Pseudomonas aeruginosa): >200 µg/mL

SMILES: Cl.Cl.Cl.Cl.Cl.Cl.Cl.N[C@@H](Cc1ccc(O)cc1)C(=O)NC[C@H]1O[C@@H]2O[C@H]3[C@H](O)[C@@H](O)[C@@H](O[C@H]4[C@H](O)[C@@H](O)[C@@H](O[C@H]5[C@H](O)[C@@H](O)[C@@H](O[C@H]6[C@H](O)[C@@H](O)[C@@H](O[C@H]7[C@H](O)[C@@H](O)[C@@H](O[C@H]8[C@H](O)[C@@H](O)[C@@H](O[C@H]1[C@H](O)[C@H]2O)O[C@@H]8CNC(=O)[C@@H](N)Cc1ccc(O)cc1)O[C@@H]7CNC(=O)[C@@H](N)Cc1ccc(O)cc1)O[C@@H]6CNC(=O)[C@@H](N)Cc1ccc(O)cc1)O[C@@H]5CNC(=O)[C@@H](N)Cc1ccc(O)cc1)O[C@@H]4CNC(=O)[C@@H](N)Cc1ccc(O)cc1)O[C@@H]3CNC(=O)[C@@H](N)Cc1ccc(O)cc1
- MIC EF (Enterococcus faecium): >200 µg/mL
- MIC SA (Staphylococcus aureus): >200 µg/mL
- MIC EC (Eschericia coli): >200 µg/mL
- MIC SC (Salmonella choleraesuis): >200 µg/mL
- MIC PA (Pseudomonas aeruginosa): >200 µg/mL

SMILES: Cl.Cl.Cl.Cl.Cl.Cl.Cl.NC(CCC(=O)OCc1ccccc1)C(=O)NCC1OC2OC3C(CNC(=O)C(N)CCC(=O)OCc4ccccc4)OC(OC4C(CNC(=O)C(N)CCC(=O)OCc5ccccc5)OC(OC5C(CNC(=O)C(N)CCC(=O)OCc6ccccc6)OC(OC6C(CNC(=O)C(N)CCC(=O)OCc7ccccc7)OC(OC7C(CNC(=O)C(N)CCC(=O)OCc8ccccc8)OC(OC8C(CNC(=O)C(N)CCC(=O)OCc9ccccc9)OC(OC1C(O)C2O)C(O)C8O)C(O)C7O)C(O)C6O)C(O)C5O)C(O)C4O)C(O)C3O (centres unmarked)
- MIC EF (Enterococcus faecium): >200 µg/mL
- MIC SA (Staphylococcus aureus): >200 µg/mL
- MIC EC (Eschericia coli): >200 µg/mL
- MIC SC (Salmonella choleraesuis): >200 µg/mL
- MIC PA (Pseudomonas aeruginosa): >200 µg/mL

SMILES: Cl.Cl.Cl.Cl.Cl.Cl.Cl.NC(CS)C(=O)NCC1OC2OC3C(CNC(=O)C(N)CS)OC(OC4C(CNC(=O)C(N)CS)OC(OC5C(CNC(=O)C(N)CS)OC(OC6C(CNC(=O)C(N)CS)OC(OC7C(CNC(=O)C(N)CS)OC(OC8C(CNC(=O)C(N)CS)OC(OC1C(O)C2O)C(O)C8O)C(O)C7O)C(O)C6O)C(O)C5O)C(O)C4O)C(O)C3O (centres unmarked)
- MIC EF (Enterococcus faecium): >200 µg/mL
- MIC SA (Staphylococcus aureus): >200 µg/mL
- MIC EC (Eschericia coli): >200 µg/mL
- MIC SC (Salmonella choleraesuis): >200 µg/mL
- MIC PA (Pseudomonas aeruginosa): >200 µg/mL

SMILES: CC(C)(C)OC(=O)NCCCC[C@H](NC(=O)[C@@H](N)CCCCNC(=O)OC(C)(C)C)C(=O)NCC1OC2OC3C(CNC(=O)[C@H](CCCCNC(=O)OC(C)(C)C)NC(=O)[C@@H](N)CCCCNC(=O)OC(C)(C)C)OC(OC4C(CNC(=O)[C@H](CCCCNC(=O)OC(C)(C)C)NC(=O)[C@@H](N)CCCCNC(=O)OC(C)(C)C)OC(OC5C(CNC(=O)[C@H](CCCCNC(=O)OC(C)(C)C)NC(=O)[C@@H](N)CCCCNC(=O)OC(C)(C)C)OC(OC6C(CNC(=O)[C@H](CCCCNC(=O)OC(C)(C)C)NC(=O)[C@@H](N)CCCCNC(=O)OC(C)(C)C)OC(OC7C(CNC(=O)[C@H](CCCCNC(=O)OC(C)(C)C)NC(=O)[C@@H](N)CCCCNC(=O)OC(C)(C)C)OC(OC8C(CNC(=O)[C@H](CCCCNC(=O)OC(C)(C)C)NC(=O)[C@@H](N)CCCCNC(=O)OC(C)(C)C)OC(OC1C(O)C2O)C(O)C8O)C(O)C7O)C(O)C6O)C(O)C5O)C(O)C4O)C(O)C3O (some centres unmarked)
- MIC EF (Enterococcus faecium): >200 µg/mL
- MIC SA (Staphylococcus aureus): >200 µg/mL
- MIC EC (Eschericia coli): >200 µg/mL
- MIC SC (Salmonella choleraesuis): >200 µg/mL
- MIC PA (Pseudomonas aeruginosa): >200 µg/mL

SMILES: OC1C2OC(CNc3nc4ccccc4[nH]3)C(OC3OC(CNc4nc5ccccc5[nH]4)C(OC4OC(CNc5nc6ccccc6[nH]5)C(OC5OC(CNc6nc7ccccc7[nH]6)C(OC6OC(CNc7nc8ccccc8[nH]7)C(OC7OC(CNc8nc9ccccc9[nH]8)C(OC8OC(CNc9nc%10ccccc%10[nH]9)C(O2)C(O)C8O)C(O)C7O)C(O)C6O)C(O)C5O)C(O)C4O)C(O)C3O)C1O (centres unmarked)
- MIC EF (Enterococcus faecium): >200 µg/mL
- MIC SA (Staphylococcus aureus): >200 µg/mL
- MIC EC (Eschericia coli): >200 µg/mL
- MIC SC (Salmonella choleraesuis): >200 µg/mL
- MIC PA (Pseudomonas aeruginosa): >200 µg/mL

SMILES: C=CCNCC1OC2OC3C(CNCC=C)OC(OC4C(CNCC=C)OC(OC5C(CNCC=C)OC(OC6C(CNCC=C)OC(OC7C(CNCC=C)OC(OC8C(CNCC=C)OC(OC1C(O)C2O)C(O)C8O)C(O)C7O)C(O)C6O)C(O)C5O)C(O)C4O)C(O)C3O (centres unmarked)
- MIC EF (Enterococcus faecium): >200 µg/mL
- MIC SA (Staphylococcus aureus): >200 µg/mL
- MIC EC (Eschericia coli): >200 µg/mL
- MIC SC (Salmonella choleraesuis): >200 µg/mL
- MIC PA (Pseudomonas aeruginosa): >200 µg/mL

SMILES: Cl.Cl.Cl.Cl.Cl.Cl.Cl.N=C(N)NCCCCSCC1OC2OC3C(CSCCCCNC(=N)N)OC(OC4C(CSCCCCNC(=N)N)OC(OC5C(CSCCCCNC(=N)N)OC(OC6C(CSCCCCNC(=N)N)OC(OC7C(CSCCCCNC(=N)N)OC(OC8C(CSCCCCNC(=N)N)OC(OC1C(O)C2O)C(O)C8O)C(O)C7O)C(O)C6O)C(O)C5O)C(O)C4O)C(O)C3O (centres unmarked)
- MIC EF (Enterococcus faecium): >200 µg/mL
- MIC SA (Staphylococcus aureus): >200 µg/mL
- MIC EC (Eschericia coli): >200 µg/mL
- MIC SC (Salmonella choleraesuis): >200 µg/mL
- MIC PA (Pseudomonas aeruginosa): >200 µg/mL

SMILES: CC(C)NCC1OC2OC3C(CNC(C)C)OC(OC4C(CNC(C)C)OC(OC5C(CNC(C)C)OC(OC6C(CNC(C)C)OC(OC7C(CNC(C)C)OC(OC8C(CNC(C)C)OC(OC1C(O)C2O)C(O)C8O)C(O)C7O)C(O)C6O)C(O)C5O)C(O)C4O)C(O)C3O (centres unmarked)
- MIC EF (Enterococcus faecium): >200 µg/mL
- MIC SA (Staphylococcus aureus): >200 µg/mL
- MIC EC (Eschericia coli): >200 µg/mL
- MIC SC (Salmonella choleraesuis): >200 µg/mL
- MIC PA (Pseudomonas aeruginosa): >200 µg/mL

SMILES: CC(CCN)CCSCC1OC2OC3C(CSCCC(C)CCN)OC(OC4C(CSCCC(C)CCN)OC(OC5C(CSCCC(C)CCN)OC(OC6C(CSCCC(C)CCN)OC(OC7C(CSCCC(C)CCN)OC(OC8C(CSCCC(C)CCN)OC(OC1C(O)C2O)C(O)C8O)C(O)C7O)C(O)C6O)C(O)C5O)C(O)C4O)C(O)C3O.Cl.Cl.Cl.Cl.Cl.Cl.Cl (centres unmarked)
- MIC EF (Enterococcus faecium): >100 µg/mL
- MIC SA (Staphylococcus aureus): >100 µg/mL
- MIC EC (Eschericia coli): >100 µg/mL
- MIC SC (Salmonella choleraesuis): >100 µg/mL
- MIC PA (Pseudomonas aeruginosa): >100 µg/mL
